{"source": "patent US4795812A", "about": "“4-substituted-6-aryl-pyrimidine compounds” (The Upjohn Company, priority 1986, dated 1989)", "key": {"S. aureus": {"tested_on": "S. aureus", "assay": "In vitro disk plate assay, S. aureus", "format": "cell-based", "conditions": "medium B (Nutrient Agar); 1 mg/ml in distilled water, 1/2 inch disk, 18 hours", "protocol": "(§1) The antibacterial spectrum of 4-(1-azindinyl)-6-phenyl-2-pyrimidinamine was determined in an in vitro disk plate assay. The assay procedure is as follows:\n(§2) A solution of 4-(1-aziridinyl)-6-phenyl-2-pyrimidinamine was prepared at 1 mg/ml in distilled water. Paper assay disks (1/2 inch) were dripped into the solution and spotted on seeded agar trays."}, "K. pneumoniae": {"tested_on": "K. pneumoniae", "assay": "In vitro disk plate assay, K. pneumoniae", "format": "cell-based", "conditions": "medium A (Streptomycin Assay Agar); 1 mg/ml in distilled water, 1/2 inch disk, 18 hours", "protocol": "as §1, §2"}, "[1]": {"tested_on": "L-1210 mouse leukemia cells", "assay": "L-1210 tube dilution assay, inhibition of mouse leukemia cell growth in vitro", "format": "cell-based", "conditions": "in vitro", "description": "ID50 and ID90 refer to the concentration of compound needed to inhibit cell growth by 50 and 90 percent, respectively."}, "S. lutea": {"tested_on": "S. lutea", "assay": "In vitro disk plate assay, S. lutea", "format": "cell-based", "conditions": "1 mg/ml in distilled water, 1/2 inch disk, 18 hours", "protocol": "as §1, §2"}, "S. pyogenes": {"tested_on": "S. pyogenes", "assay": "In vitro disk plate assay, S. pyogenes", "format": "cell-based, Streptococcus pyogenes", "conditions": "medium D (Brain Heart Infusion Agar); 1 mg/ml in distilled water, 1/2 inch disk, 18 hours", "protocol": "as §1, §2"}, "S. pastorianus": {"tested_on": "S. pastorianus", "assay": "In vitro disk plate assay, S. pastorianus", "format": "cell-based", "conditions": "medium G (Gray's Medium); 1 mg/ml in distilled water, 1/2 inch disk, 18 hours", "protocol": "as §1, §2"}, "M. avium": {"tested_on": "M. avium", "assay": "In vitro disk plate assay, M. avium", "format": "cell-based", "conditions": "medium D (Brain Heart Infusion Agar); 1 mg/ml in distilled water, 1/2 inch disk, 18 hours", "protocol": "as §1, §2"}, "B-16 melanoma": {"tested_on": "B-16 melanoma", "assay": "In vivo B-16 melanoma test in mice (i.p.)", "set-up": "species or system mouse", "conditions": "for % ILS (% increase in life span of treated compared to control animals) / Weight Change: i.p.-B16, daily × 9, i.p.; for % ILS (% increase in life span of treated compared to control animals): Klucel suspension; for Weight Change: between days 1 and 5 after tumor inoculation", "description": "(§3) The P-388 mouse leukemia test is described in detail in a publication by G. L. Neil, et al, Cancer Treatment Reports 63, 1971-1978 (1979).\n(§4) ^a mg/kg/day, daily × 9, i.p., administered as a Klucel\n(§5) ^b % increase in life span of treated compared to control animals.\n(§6) ^c g/mouse between days 1 and 5 after tumor inoculation.\n(§7) The NCI-designated criteria of significant activity for synthetic agents in these 3 systems are: for P388, 20% ILS; L1210 and B16, 25% ILS."}, "[2]": {"tested_on": "Rhodopseudomonas spheroides", "assay": "In vitro disk plate assay, Rhodopseudomonas spheroides", "format": "cell-based", "conditions": "medium F (Plate Count Medium); 1 mg/ml in distilled water, 1/2 inch disk, 18 hours", "protocol": "as §1, §2"}, "E. coli": {"tested_on": "E. coli", "assay": "In vitro disk plate assay, E. coli", "format": "cell-based", "conditions": "1 mg/ml in distilled water, 1/2 inch disk, 18 hours", "protocol": "as §1, §2"}, "B. fragilis": {"tested_on": "B. fragilis", "assay": "In vitro disk plate assay, B. fragilis", "format": "cell-based", "conditions": "medium H (Schaedler Agar); 1 mg/ml in distilled water, 1/2 inch disk, 18 hours", "protocol": "as §1, §2"}, "P. vulgaris": {"tested_on": "P. vulgaris", "assay": "In vitro disk plate assay, Proteus vulgaris", "format": "cell-based", "conditions": "medium B (Nutrient Agar); 1 mg/ml in distilled water, 1/2 inch disk, 18 hours", "protocol": "as §1, §2"}, "P388 leukemia": {"tested_on": "P388 leukemia", "assay": "In vivo P-388 mouse leukemia test (i.p.)", "conditions": "for % ILS (% increase in life span of treated compared to control animals) / Weight Change: daily × 9, i.p.; for % ILS (% increase in life span of treated compared to control animals): Klucel suspension; for Weight Change: between days 1 and 5 after tumor inoculation", "description": "as §3, §4, §5, §6, §7"}, "Ps. aeruginosa": {"tested_on": "Ps. aeruginosa", "assay": "In vitro disk plate assay, Ps. aeruginosa", "format": "cell-based", "conditions": "medium B (Nutrient Agar); 1 mg/ml in distilled water, 1/2 inch disk, 18 hours", "protocol": "as §1, §2"}, "L-1210 leukemia": {"tested_on": "L-1210 leukemia", "assay": "In vivo L-1210 leukemia test in mice (i.p.)", "set-up": "species or system mouse", "conditions": "for % ILS (% increase in life span of treated compared to control animals) / Weight Change: i.p.-L1210, daily × 9, i.p.; for % ILS (% increase in life span of treated compared to control animals): Klucel suspension; for Weight Change: between days 1 and 5 after tumor inoculation", "description": "as §3, §4, §5, §6, §7"}, "S. schottmuelleri": {"tested_on": "S. schottmuelleri", "assay": "In vitro disk plate assay, S. schottmuelleri", "format": "cell-based", "conditions": "medium B (Nutrient Agar); 1 mg/ml in distilled water, 1/2 inch disk, 18 hours", "protocol": "as §1, §2"}, "[3]": {"conditions": "i.p.-P388, first series, 5 mg/kg/day"}, "[4]": {"conditions": "i.p.-P388, first series, 10 mg/kg/day"}, "[5]": {"conditions": "i.p.-P388, first series, 20 mg/kg/day"}, "[6]": {"conditions": "i.p.-P388, first series, 40 mg/kg/day"}, "[7]": {"conditions": "i.p.-P388, second series, 5 mg/kg/day"}, "[8]": {"conditions": "i.p.-P388, second series, 10 mg/kg/day"}, "[9]": {"conditions": "i.p.-P388, second series, 20 mg/kg/day"}, "[10]": {"conditions": "i.p.-P388, second series, 40 mg/kg/day"}}}
{"smiles": "Nc1nc(-c2ccccc2)cc(N2CC2)n1", "note": "[Example 2, 4-(1-aziridyl)-6-phenyl-2-pyrimidinamine]", "values": [{"measurement": "Zone of Inhibition", "setting": "S. aureus", "result": 0, "unit": "mm"}, {"measurement": "Zone of Inhibition", "setting": "K. pneumoniae", "result": 0, "unit": "mm"}, {"measurement": "inhibition of growth of L-1210 cells (in words)", "setting": "[1]", "result": "inhibit the growth of L-1210 mouse leukemia cells in vitro"}, {"measurement": "Zone of Inhibition", "setting": "S. lutea; S. lutea+, medium B (Nutrient Agar)", "result": 0, "unit": "mm"}, {"measurement": "Zone of Inhibition", "setting": "S. lutea; S. luteau, medium C (PenAssay Seed Agar)", "result": 0, "unit": "mm"}, {"measurement": "Zone of Inhibition", "setting": "S. pyogenes", "result": 21, "unit": "mm"}, {"measurement": "Zone of Inhibition", "setting": "S. pastorianus", "result": 0, "unit": "mm"}, {"measurement": "Zone of Inhibition", "setting": "M. avium", "result": 0, "unit": "mm"}, {"measurement": "% ILS (% increase in life span of treated compared to control animals)", "setting": "B-16 melanoma; 6.3 mg/kg/day", "result": 2, "unit": "%"}, {"measurement": "Weight Change", "setting": "B-16 melanoma; 6.3 mg/kg/day", "result": "+1.2 g/mouse"}, {"measurement": "% ILS (% increase in life span of treated compared to control animals)", "setting": "B-16 melanoma; 12.5 mg/kg/day", "result": 4, "unit": "%"}, {"measurement": "Weight Change", "setting": "B-16 melanoma; 12.5 mg/kg/day", "result": "+0.3 g/mouse"}, {"measurement": "% ILS (% increase in life span of treated compared to control animals)", "setting": "B-16 melanoma; 25 mg/kg/day", "result": 11, "unit": "%"}, {"measurement": "Weight Change", "setting": "B-16 melanoma; 25 mg/kg/day", "result": -0.5, "unit": "g/mouse"}, {"measurement": "% ILS (% increase in life span of treated compared to control animals)", "setting": "B-16 melanoma; 50 mg/kg/day", "result": 7, "unit": "%"}, {"measurement": "Weight Change", "setting": "B-16 melanoma; 50 mg/kg/day", "result": -3.0, "unit": "g/mouse"}, {"measurement": "in vivo activity against B-16 melanoma (in words)", "setting": "B-16 melanoma; mice", "result": "no in vivo activity in mice against B-16 melanoma"}, {"measurement": "Zone of Inhibition", "setting": "[2]", "result": 18, "unit": "mm"}, {"measurement": "Zone of Inhibition", "setting": "E. coli; medium B (Nutrient Agar)", "result": 0, "unit": "mm"}, {"measurement": "Zone of Inhibition", "setting": "E. coli; medium E (Synthetic Medium)", "result": 0, "unit": "mm"}, {"measurement": "Zone of Inhibition", "setting": "B. fragilis", "result": 23, "unit": "mm"}, {"measurement": "Zone of Inhibition", "setting": "P. vulgaris", "result": 0, "unit": "mm"}, {"measurement": "% ILS (% increase in life span of treated compared to control animals)", "setting": "P388 leukemia; [3]", "result": 10, "unit": "%"}, {"measurement": "Weight Change", "setting": "P388 leukemia; [3]", "result": "+1.8 g/mouse"}, {"measurement": "% ILS (% increase in life span of treated compared to control animals)", "setting": "P388 leukemia; [4]", "result": 11, "unit": "%"}, {"measurement": "Weight Change", "setting": "P388 leukemia; [4]", "result": "+2.1 g/mouse"}, {"measurement": "% ILS (% increase in life span of treated compared to control animals)", "setting": "P388 leukemia; [5]", "result": 25, "unit": "%"}, {"measurement": "Weight Change", "setting": "P388 leukemia; [5]", "result": -0.7, "unit": "g/mouse"}, {"measurement": "% ILS (% increase in life span of treated compared to control animals)", "setting": "P388 leukemia; [6]", "result": 47, "unit": "%"}, {"measurement": "Weight Change", "setting": "P388 leukemia; [6]", "result": -3.8, "unit": "g/mouse"}, {"measurement": "% ILS (% increase in life span of treated compared to control animals)", "setting": "P388 leukemia; [7]", "result": 14, "unit": "%"}, {"measurement": "Weight Change", "setting": "P388 leukemia; [7]", "result": "+1.8 g/mouse"}, {"measurement": "% ILS (% increase in life span of treated compared to control animals)", "setting": "P388 leukemia; [8]", "result": 11, "unit": "%"}, {"measurement": "Weight Change", "setting": "P388 leukemia; [8]", "result": "+2.1 g/mouse"}, {"measurement": "% ILS (% increase in life span of treated compared to control animals)", "setting": "P388 leukemia; [9]", "result": 17, "unit": "%"}, {"measurement": "Weight Change", "setting": "P388 leukemia; [9]", "result": "+0.5 g/mouse"}, {"measurement": "% ILS (% increase in life span of treated compared to control animals)", "setting": "P388 leukemia; [10]", "result": 26, "unit": "%"}, {"measurement": "Weight Change", "setting": "P388 leukemia; [10]", "result": -2.0, "unit": "g/mouse"}, {"measurement": "in vivo activity against P388 leukemia (in words)", "setting": "P388 leukemia; mice", "result": "demonstrated activity in vivo against P388 and L-1210 leukemias in mice"}, {"measurement": "Zone of Inhibition", "setting": "Ps. aeruginosa", "result": 0, "unit": "mm"}, {"measurement": "% ILS (% increase in life span of treated compared to control animals)", "setting": "L-1210 leukemia; 5 mg/kg/day", "result": 0, "unit": "%"}, {"measurement": "Weight Change", "setting": "L-1210 leukemia; 5 mg/kg/day", "result": "+1.2 g/mouse"}, {"measurement": "% ILS (% increase in life span of treated compared to control animals)", "setting": "L-1210 leukemia; 10 mg/kg/day", "result": 0, "unit": "%"}, {"measurement": "Weight Change", "setting": "L-1210 leukemia; 10 mg/kg/day", "result": "+1.5 g/mouse"}, {"measurement": "% ILS (% increase in life span of treated compared to control animals)", "setting": "L-1210 leukemia; 20 mg/kg/day", "result": 9, "unit": "%"}, {"measurement": "Weight Change", "setting": "L-1210 leukemia; 20 mg/kg/day", "result": "+0.6 g/mouse"}, {"measurement": "% ILS (% increase in life span of treated compared to control animals)", "setting": "L-1210 leukemia; 40 mg/kg/day", "result": 24, "unit": "%"}, {"measurement": "Weight Change", "setting": "L-1210 leukemia; 40 mg/kg/day", "result": -2.4, "unit": "g/mouse"}, {"measurement": "in vivo activity against L-1210 leukemia (in words)", "setting": "L-1210 leukemia; mice", "result": "demonstrated activity in vivo against P388 and L-1210 leukemias in mice"}, {"measurement": "Zone of Inhibition", "setting": "S. schottmuelleri", "result": 0, "unit": "mm"}]}
